Assay results as given in patent US8048872B2, “Treatment of hyperproliferative diseases with vinca alkaloid N-oxide and analogs” (Stat of Oregon Acting by and Through The Oregon State Board …, priority 2006, dated 2011).
“And” between values parts separate entries of the source, which are not always exact repeats. Equal values may be shown once. Read-outs that look alike come from different tables or passages of the source.

What was measured:
[1] = system: multiple human solid tumor cell lines; test: Hypoxia-induced cytotoxicity across cell lines (HCR range); assay type: cell-based
Experimental: (§1) Tumor cell line were cultured in DMEM-10% FBS under standard conditions. One-hundred mm plastic culture dishes were seeded with 1×10^6 tumor cells and treated with vinca alkaloids or N-oxide analogs at a dose range of 0.01-100 nM. Cells were exposed with gentle rocking to a constant level of low oxygen (0.2% O2-5% CO2-balance N2) in a hypoxia apparatus (INVIVO2400 Hypoxia Workstation, Ruskin Technology) for 14 hr at 37° C. Identically treated cells were incubated under normoxia (air-5% CO2) at 37° C. Cells were harvested and replated in fresh medium at a density of 1×10^3 cells/well in 48-well plastic culture plates to assess viability 24-72 hr later. Briefly, Alamar Blue was added to replicate wells on Day 0 and Day 3, and cells were incubated for a further 3-6 hr at 37° C. before fluorescence readings using a plate reader (530-560 nm excitation, 590 emission). The percent inhibition of proliferation was calculated and plotted against control-treated cells at each drug concentration. […] The Hypoxia Cytotoxicity Ratio (HCR) was determined as the ratio of the IC50 of the compound under normoxic conditions vs. hypoxic conditions.

[2] = system: murine P388 leukemic tumor cells; test: in vivo; details: mouse, in vivo
Experimental: For example, B6D2F1 mice (n=8/group) were inoculated subcutaneously (sc) in the right flank with 1×10^6 murine L1210 leukemic tumor cells. […] Test agents were administered on multiple treatment regimen (q3d×5) to yield optimal dose schedule benefit. Vehicle control treated mice served as the negative control group; mice treated with the bioreduced parent compounds, vincristine and vinblastine, dosed at their […] (MTDs), served as the positive control groups. Tumors were measured with calipers twice weekly and tumor volume calculated using the formula: Tumor Volume (mm^3)=((width)^2×length)/2. Animals were monitored for signs of toxicity and weighed daily for the first 5 days of the study and then twice-weekly until the study end. As pre-defined in the protocol, each animal was actively euthanized when its tumor reached the pre-determined endpoint size of 2000 mm^3 or at the conclusion of the study (day 37) whichever came first. The time to endpoint (TTE) was calculated for each mouse as TTE (days)=(log10(endpoint volume mm^3)−b)/m where b is the intercept and m is the slope of the line obtained by linear regression of a log-transformed tumor growth data set. Treatment outcome was determined from tumor growth delay (TGD) which is defined as the increase in median TTE in a treatment (T) group as compared to the control (C) group (TGD=T−C) expressed in days or as a percentage of the median TTE of the control group % TGD=((T−C)/C)×100. […] Statistical significance between the treated vs. control groups was evaluated by logrank analysis.
This model was developed by subcutaneously inoculating B6D2F1 mice (n=8/group) with 1×10^6 murine P388 leukemic tumor cells using similar methodology to that described above for L1210. […] Agents were administered on multiple treatment regimen (q3d×5) to yield optimal dose schedule benefit. Efficacy of treatment with the N-oxide analogs was determined by Tumor Growth Delay (TGD) and Kaplan-Meier survival analysis as described for L1210, the exception being that the conclusion of the study was day 45 or the predefined endpoint size of 2000 mm^3 whichever came first. Vehicle control treated mice served as the negative control group; mice treated with the standard agents, vincristine and vinblastine, dosed at their MTDs, served as the positive control groups.

[3] = system: human K562 myelogenous leukemia cells; test: in vivo
Experimental: In one example, female nude mice (n=10) were inoculated subcutaneously with 15×10^6 human K562 myelogenous leukemia cells in a 1:1 ratio with matrigel on the right flank. Tumor volumes were monitored and calculated using the formula: Tumor volume=(a^2×b/2) where ‘a’ is the smallest diameter and ‘b’ is the largest diameter. Once the established tumors reached approximately 75-150 mm^3 (individual tumor volumes may range from […]) the mice were assigned to the various vehicle control and treatment groups such that the mean tumor volumes in the treated groups were within 10% of the mean tumor weight in the vehicle control group. On the same day (day 1) and days 4, 7, 10, and 13, vinca-alkaloid N-oxide analogs (VCR-NO, VBL-NO) were administered intravenously according to a q3d×5 schedule. Mice were also treated with vehicle (negative control) and the standard agents, vinblastine and vincristine (positive controls). Tumor volumes were recorded three times a week starting when tumors were palpable and including the day of study termination. Animals were monitored for signs of toxicity and body weights were recorded twice a week starting on the first day of treatment and including the day of study termination. […] The mean day of sacrifice were calculated to determine the tumor growth delay and tumor growth inhibition effects of each test article as compared to vehicle control. […] Statistical significance between the treated vs. control groups was evaluated by logrank analysis.

[4] = system: human HT29 colorectal adenocarcinoma; set-up: species or system mouse; details: in vivo
[5] = system: A549 non-small cell lung carcinoma
Experimental: as §1

[6] = system: FaDU head and neck tumor cell lines
Experimental: as §1

[7] = system: Human H460 lung adenocarcinoma tumor cells
Experimental: Cells were exposed with gentle rocking to a constant level of low oxygen (0.2% O2-5% CO2-balance N2) in a hypoxia apparatus (INVIVO2400 Hypoxia Workstation, Ruskin Technology) for 12 hr at 37° C. Identically treated cells were incubated under normoxia (air-5% CO2) at 37° C. Cells were harvested and lysed in DNA lysis buffer (20 mM Tris-HCL, pH 8.0, 1 mM EDTA, 0.1% Triton X-100) and stored at −80° C. for analysis of DNA content and LC/MS/MS analysis. […] Lysates were mixed with 150 ml of methanol containing 0.1% acetic acid and vinca alkaloid internal standard, and vortexed for 10 min, and centrifuged for 5 min at 18000 g. Clarified supernatants were transferred to HPLC vials fitted with glass inserts and analyzed by LC-MS/MS. Chromatography was performed on an Acquity HPLC system fitted with an Acquity BEH C18 column, and used 0.1% (v:v) formic acid in water for mobile phase A, and 0.1% (v:v) formic acid in acetonitrile for mobile phase B. Mass spectral analysis was performed using a Micromass Quattro Micro triple quadupole mass spectrometer.
The amounts of each compound were calculated from standard curves.

[8] = mouse, in vivo
Experimental: Body weights were monitored twice weekly and up to 2 weeks following treatment. Mice were also injected iv with 0.6 or 1 mg/kg vincristine using the same q3d×5 schedule as a positive control.

[9] = system: human HL60 promyelocytic leukemia cells; details: in vivo
[10] = system: H460 lung carcinoma tumor cells; assay type: cell-based, human
[11] = system: SiHa
Experimental: as §1

[12] = system: human H460 lung adenocarcinoma cells
Experimental: Human H460 lung adenocarcinoma tumor cells were cultured in DMEM-10% FBS under standard conditions. One-hundred mm plastic culture dishes were seeded with 1×10^6 tumor cells/dish and treated with vinca alkaloids or N-oxide analogs at a 0.01-100 nM dose range. Cells were exposed with gentle rocking to a constant level of low oxygen (0.2, 1% or 5% O2-5% CO2-balance N2) in a hypoxia apparatus (INVIVO2400 Hypoxia Workstation, Ruskin Technology) for 14 hr at 37° C. Identically treated cells were incubated under normoxia (air-5% CO2) at 37° C. Cells were harvested and replated in fresh medium at a density of 1×10^3 cells/well in 48-well plastic culture plates to assess viability 24-72 hr later. Briefly, Alamar Blue was added to replicate wells on Day 0 and Day 3, and cells were incubated for a further 3-6 hr at 37° C. before fluorescence readings using a plate reader (530-560 nm excitation, 590 emission). The percent inhibition of proliferation was calculated and plotted against control-treated cells at each drug concentration. […] The Hypoxia Cytotoxicity Ratio (HCR) was defined as ((IC50 in Hypoxia)/(IC50 in Normoxia)).

[13] = mouse, in vivo; remark: listed apart in the source
Experimental: Body weights were monitored twice weekly and up to 2 weeks following treatment. Mice were also injected ip with 4 or 6 mg/kg vinblastine using the same q3d×5 schedule as a positive control.

Row | Structure (SMILES) | HCR values [1] | Tumor Growth Delay [2] | Tumor Growth Inhibition [3] | Tumor Growth Delay [4] | Hypoxia Cytotoxicity Ratio (HCR) [5] | Hypoxia Cytotoxicity Ratio (HCR) [6] | bioreduction to parent compound [7] | body weight loss / gross symptoms of toxicity [8] | Tumor Growth Inhibition [9] | Hypoxia Cytotoxicity Ratio [10] | IC50 inhibitory activity after activation under hypoxia [10] | Hypoxia Cytotoxicity Ratio (HCR) [11] | cytotoxicity vs oxygen concentration [12] | body weight loss / gross symptoms of toxicity [13]
1 | CC[C@]1(O)C[C@@H]2C[C@](C(=O)OC)(c3cc4c(cc3OC)N(C=O)[C@H]3[C@@](O)(C(=O)OC)[C@@H](OC(C)=O)[C@]5(CC)C=CCN6CC[C@]43[C@@H]65)c3[nH]c4ccccc4c3CC[N@+]([O-])(C2)C1 [Vincristine N-oxide, Vincristine N′b-Oxide] | 5-25 | 76% and 54% | 69% and 84% and 60% | 42% | 11.2 | 6 | bioreduced to vincristine under hypoxia exposure | no evidence of significant body weight loss or gross symptoms of toxicity | 94% and 96% | – | – | – | – | –
2 | CC[C@]1(O)C[C@H]2C[C@](C(=O)OC)(c3cc4c(cc3OC)N(C)[C@H]3[C@@](O)(C(=O)OC)[C@H](OC(C)=O)[C@]5(CC)C=CCN6CC[C@]43[C@@H]65)c3[nH]c4ccccc4c3CC[N@+]([O-])(C2)C1 [Vinblastine N-oxide, Vinblastine N′b-Oxide] | 3-21 | – | 77% and 89% | – | – | 7.5 | bioreduced to vinblastine under hypoxia exposure | – | 91% and 94% | ~20 | low nanomolar | 4.3 | Increased cytotoxicity | no evidence of significant body weight loss or gross symptoms of toxicity
